According to patent US20260028342A1, “ENHANCING ANTIMETASTASIS ACTIVITY USING TARGETED PROTEIN DEGRADATION” (THE UNIVERSITY OF NORTH CAROLINA AT CHAPEL HILL, priority 2022, published 2026):
Entries after “also recorded” stand apart in the source; their conditions may differ. Read-outs that look alike come from different tables or passages of the source. One block for each molecule: values may come before it.

Assays:
[1] = test system: PNC prevalence in HeLA cells; assay: Percentage of HeLa cells with PNCs after treatment (FIG. 7); type: cell-based
Text: PNC prevalence is correlated with metastatic potential and can be disrupted through modulation of the elongation factor eEF1A.

PNC in HeLa cancer cells = assay: PNC inhibition: IC50 inhibiting PNC in cancer cells (HeLa); type: cell-based; conditions: for IC50: Homo sapiens, HeLa cancer cells, inhibiting PNC; for fold more potent than metarrestin: PNC inhibition, versus metarrestin; for IC50 nucleoli.normal/IC50 PNC.cancer: ratio RPE1 nucleoli IC50 to HeLa PNC IC50
Description: PNC inhibitory activity was determined using fluorescent imaging techniques known in the art, such as: a CellTiter-Glo® luminescence assay from Promega to determine cell viability and/or fluorescent imaging studies with an IN Cell Analyzer 1000 automated system in combination with a green fluorescent protein (GFP) tagged PNC localized complex.

[2] = test system: nucleoli in RPE1 normal cells; assay: IC50 disrupting nucleoli in normal cells (RPE1); type: cell-based; conditions: Homo sapiens, RPE-1
[3] = Large mammal dose-escalation studies; type: in vivo; conditions: overloading dosing
Text: Thus, the potential for dose-limiting neurological side effects could constrain the patient population to drug-resistant or late-stage individuals. However, cancer patient outcomes would generally greatly benefit from adjuvant or co-administration use of an anti-metastasis agent such as metarrestin at any stage of cancer. Therefore, in order to improve the cancer cell selectivity and reduce potential toxicity to normal cells, development of next generation metarrestin derivatives that selectively enhance drug efficacy against cancer cells over normal cells were needed.

migration and invasion = conditions: reference [5]; cited from earlier work
eEF1A2 [4] = biological target: T1, eEF1A2 (Homo sapiens, UniProt Q05639); assay: Competition with anchored biotinylated metarrestin-eEF1A2 complex; type: binding; conditions: FIG. 3A
T1 construct: Compound 49 treatment for 20 hours reduced eEF1A2 by Western blot analysis; endogenous in cells
T1 sequence (Q05639 1-463): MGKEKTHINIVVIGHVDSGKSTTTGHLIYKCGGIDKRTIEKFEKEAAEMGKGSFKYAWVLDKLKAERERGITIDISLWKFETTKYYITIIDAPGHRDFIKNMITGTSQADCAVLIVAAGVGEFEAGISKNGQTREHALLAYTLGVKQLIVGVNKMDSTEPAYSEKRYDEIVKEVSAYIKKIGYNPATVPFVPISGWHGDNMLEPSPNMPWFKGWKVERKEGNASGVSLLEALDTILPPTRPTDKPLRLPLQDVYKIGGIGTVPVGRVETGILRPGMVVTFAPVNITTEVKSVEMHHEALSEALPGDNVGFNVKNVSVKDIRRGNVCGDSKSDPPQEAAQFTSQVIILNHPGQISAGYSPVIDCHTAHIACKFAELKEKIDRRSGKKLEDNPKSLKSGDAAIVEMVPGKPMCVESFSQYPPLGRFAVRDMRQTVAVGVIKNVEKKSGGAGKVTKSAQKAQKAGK
Text: (§1) FIGS. 3A-3E show metarrestin binding and cellular data. FIG. 3A presents data showing that metarrestin specifically binds eEF1A2, and increased eEF1A2 enhances PNCs and metastasis formation. […] Mice from both groups were harvested six weeks after implantation and subjected to necropsy. […] Histopathological images (H&E) of livers (black scale bar=250 μm, white scale bar=100 μm) are shown on the right. Insets depict representative metastatic lesions.
(§2) With respect to the metarrestin target eEF1A2, the biased expression of eEF1A2 in cancer cells over normal adult cells (except neuronal cells) was used to selectively target cancer cells. […] Increased eEF1A2 enhances PNC number per cell (FIG. 3C) and metastasis formation (FIG. 3E). […] Expression of eEF1A2 is associated with cancer metastasis and correlates with poor patient outcomes.

[5] = test system: breast cancer patient-derived xenograft; conditions: PDX harvested from a lung metastasis site, reference [5]; cited from earlier work
[6] = test system: PC3M (metastatic prostate cancer cell line); conditions: PC3M xenograft, reference [5]; cited from earlier work
PANC1 [7] = assay: Survival of PANC1 tumor-bearing animals; type: in vivo, mouse; conditions: for animal survival, treatment started post-macrometastasis formation / animal survival, treatment started prior to macrometastasis formation: food pellets, 10 mg/kg daily; for animal survival, treatment started post-macrometastasis formation: start eight weeks post-inoculation, FIG. 2F; for animal survival, treatment started prior to macrometastasis formation: start four weeks post-inoculation, FIG. 2E; for organ tumor replacement at autopsy (liver, lung, pancreas): treatment after macrometastasis, versus regular food pellets, FIG. 2G
Description: (§3) FIGS. 2A-2F show metarrestin and various studies.
(§4) Using a high-content screen to measure reduction of PNC prevalence, noncytotoxic PNC inhibitor hit compounds were discovered such as metarrestin, (FIG. 2A). […] Metarrestin was further evaluated in xenograft models of PC3M (metastatic prostate cancer cell line) and in a breast cancer patient-derived xenograft (PDX, harvested from a lung metastasis site). […] When the survival of the PANC1 tumor-bearing animals was evaluated, two sets of experiments were performed to determine efficacy at two treatment starting points, either after (eight weeks post-inoculation) or prior to (four weeks post-inoculation) macrometastasis had been established.

[8] = daily treatment for up to three months, animals, reference [5]; cited from earlier work
PANC1 [9] = assay: Orthotopic mouse model with 3-D cultured PANC1 cells (metastasis); type: in vivo
Description: as §3, §4

[10] = reference [29], cited from earlier work
eEF1A2 [11] = biological target: T1, eEF1A2; assay: Thermal stability assay using PC3M cell lysate; type: binding; conditions: FIG. 3B
Text: as §1, §2

eEF1A2 [12] = biological target: T1, eEF1A2; conditions: similar treatment conditions, reference [5]; cited from earlier work
PNC in PC3M cells = assay: PNC disassembly in PC3M cells with eEF1A2 overexpression; type: cell-based; conditions: FIG. 3D
Text: as §1, §2

eEF1A2 [13] = biological target: T1, eEF1A2; assay: Western blot analysis of eEF1A2 protein levels; type: cell-based; design: dose or concentration left out as unconfirmed; conditions: actin loading control, vehicle as standard of one; preliminary
Text: FIGS. 6A and 6B show results from metarrestin-PROTAC studies.

SMILES: N=c1c2c(-c3ccccc3)c(-c3ccccc3)n(Cc3ccccc3)c2ncn1[C@H]1CC[C@H](OC(=O)CCOCCOCCOCCNc2cccc3c2C(=O)N(C2CCC(=O)NC2=O)C3=O)CC1 (stereo partly shown) [Compound 57]
- PNC prevalence (percentage of cells with PNCs) [1]: almost complete disruption of PNC prevalence
- PNC prevalence (percentage of cells with PNCs) ([1]; 0.1 μM): measureable reduction in PNC prevalence

- IC50 (PNC in HeLa cancer cells): 0.11 µM
SMILES: N=c1c2c(-c3ccccc3)c(-c3ccccc3)n(Cc3cccc(CNC(=O)CCCCCNc4cccc5c4C(=O)N(C4CCC(=O)NC4=O)C5=O)c3)c2ncn1C1CCC(O)CC1 (stereo not shown) [Compound 46]
- fold more potent than metarrestin (PNC in HeLa cancer cells): threefold
- IC50 nucleoli.normal/IC50 PNC.cancer (PNC in HeLa cancer cells): 4.27
- IC50 [2]: 0.47 µM

SMILES: N=c1c2c(-c3ccccc3)c(-c3ccccc3)n(Cc3ccccc3)c2ncn1[C@H]1CC[C@H](O)CC1 [Metarrestin]
- seizures [3]: reversible seizures
- in vitro anti-oncogenic properties (migration and invasion): migration and invasion inhibition
- competition of recombinant eEF1A2 binding to anchored biotinylated metarrestin (eEF1A2 [4]): effectively outcompeted
- metastatic tumor growth [5]: metastatic tumor growth inhibition
- IC50 (PNC in HeLa cancer cells): 0.36 µM
- IC50 nucleoli.normal/IC50 PNC.cancer (PNC in HeLa cancer cells): 6.25
- organ metastasis [6]: significant inhibition of organ metastasis
- animal survival, treatment started post-macrometastasis formation (PANC1 [7]; 10 mg/kg): significantly improved animal survival
- animal survival, treatment started post-macrometastasis formation (PANC1 [7]; listed as metarrestin, 10 mg/kg): effective at extending survival
- animal survival, treatment started prior to macrometastasis formation (PANC1 [7]): drastic animal survival advantages
- animal survival, treatment started prior to macrometastasis formation (PANC1 [7]; 10 mg/kg): completely prevented metastasis-induced death
- organ tumor replacement at autopsy (liver, lung, pancreas) (PANC1 [7]): did not show significant tumor replacement
- organ tumor replacement at autopsy (liver, lung, pancreas) (PANC1 [7]; listed as metarrestin): less tumors were present
- adverse effects [8]: does not induce discernable adverse effects
- metastasis as organ/tumor ratio in liver and lung (PANC1 [9]; 5 mg/kg and 25 mg/kg, FIG. 2B): inhibits metastasis
- metastatic burden in lung and liver (PANC1 [9]; 25 mg/kg IP daily for four weeks): significantly reduced the metastatic burden
- primary tumor growth (PANC1 [9]; 25 mg/kg IP daily for four weeks, data not shown): only modest reduction
- metastasis as metastatic deposits in liver and lung (PANC1 [9]; 25 mg/kg, FIG. 2C): inhibits metastasis
- half-life ([10]; allows once-a-day dosing): long
- tissue distribution [10]: good
- thermal stabilization of eEF1A2 (eEF1A2 [11]): stabilized eEF1A; also recorded: stabilized eEF1A2
- eEF1A2 protein levels (eEF1A2 [12]): does not reduce the protein levels
- IC50 [2]: 2.5 µM
- change of IC50 for PNC disassembly on eEF1A2 overexpression (PNC in PC3M cells): increased the IC50

SMILES: N=c1c2c(-c3ccccc3)c(-c3ccccc3)n(Cc3ccccc3)c2ncn1[C@H]1CC[C@H](OC(=O)CCCNc2cccc3c2C(=O)N(C2CCC(=O)NC2=O)C3=O)CC1 (stereo partly shown) [Compound 56]
- PNC prevalence (percentage of cells with PNCs) [1]: almost complete disruption of PNC prevalence
- PNC prevalence (percentage of cells with PNCs) ([1]; 0.1 μM): measureable reduction in PNC prevalence

- IC50 (PNC in HeLa cancer cells): 0.025 µM
SMILES: O=C1CCC(N2C(=O)c3cccc(NCCCCCNC(=O)c4ccc(Cn5c(-c6ccccc6)c(-c6ccccc6)c6c(NC7CCC(O)CC7)ncnc65)cc4)c3C2=O)C(=O)N1 (stereo not shown) [Compound 49]
- eEF1A2 protein levels by Western blot (eEF1A2 [13]): significantly reduced; also recorded: significant reduction
- fold more potent than metarrestin (PNC in HeLa cancer cells): 14 fold
- IC50 nucleoli.normal/IC50 PNC.cancer (PNC in HeLa cancer cells): 4
- IC50 [2]: 0.1 µM
